Results as given in patent US20240122926A1, “APELIN RECEPTOR MODULATORS FOR TREATING MUSCLE CONDITIONS” (priority 2022, published 2024).
Entries after “also recorded” stand apart in the source; their conditions may differ. Read-outs that look alike come from different tables or passages of the source.

What was measured:
[1] = test system: healthy volunteers aged ≥65 years; assay: Phase 1b bed rest study, ultrasound muscle quality grade (echo density); type: in vivo, human
Experimental: One day before (baseline, D-1) and 5 (D5) and 10 (D10) days after initiation of bed rest, key muscle atrophy endpoints were measured: thigh circumference; cross-sectional area (CSA) and A-P diameter of vastus lateralis (ultrasound); ultrasound muscle quality grade, an index that quantifies fatty degeneration in muscle (ultrasound echo density); and muscle protein synthesis rate (biopsy). Parameters measured during the 10-day bed rest period include thigh circumference, muscle size, muscle quality (e.g., fatty degeneration), and muscle protein synthetic rate.
The echo density measurements showing the number of patients receiving an ultrasound muscle quality grading scale using a numerical grading system of grade 1 or a grade 2 classifying fatty muscle atrophy by measuring fatty infiltration of the muscle fibers of a biopsy from the patient. […] Open box represents normal muscle (grade 1), and striped box represents muscle that contains some fatty streaks (grade 2). […] (p=0.0019).

human APLNR = target: T1, human APLNR (Homo sapiens, UniProt P35414); assay: cell-based; conditions: CHO, read-out: maximum effect (Emax)
T1 sequence (P35414 1-380): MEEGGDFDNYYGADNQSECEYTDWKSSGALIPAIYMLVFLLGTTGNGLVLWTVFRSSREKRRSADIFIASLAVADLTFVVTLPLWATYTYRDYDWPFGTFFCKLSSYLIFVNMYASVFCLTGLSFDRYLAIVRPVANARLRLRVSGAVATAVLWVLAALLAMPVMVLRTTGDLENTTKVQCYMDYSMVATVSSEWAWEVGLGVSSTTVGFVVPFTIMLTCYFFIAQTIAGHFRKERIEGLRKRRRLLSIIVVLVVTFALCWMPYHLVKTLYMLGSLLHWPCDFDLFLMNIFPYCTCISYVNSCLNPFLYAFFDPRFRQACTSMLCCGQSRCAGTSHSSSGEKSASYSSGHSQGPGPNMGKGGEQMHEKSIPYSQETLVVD
Experimental: APLNR activation was determined by β-arrestin recruitment as measured by the ProLink […] complementation technology (93-0001, DiscoveRx). In brief, CHO cells stably expressing APLNR were seeded and incubated overnight at 37° C. The compounds were tested in duplicate and diluted to obtain a 10-point curve with 3-fold serial dilutions (<1% DMSO). The compounds and cells were incubated for 3 hours at 37° C. After the incubation period the detection reagents were added and the plate chemiluminescent signal was measured after 30 min at RT.

[2] = Phase 1 study BGE-105-101 Part A (SAD), pharmacokinetics after IV infusion; type: in vivo, human; conditions: for Dose-normalized AUCinf / Dose-normalized Cmax: unit assumed; for AUC(0-t) / AUC(0-inf) / half-life / Cmax: human, plasma; for AUC(0-t) / AUC(0-inf) / half-life: intravenous; for Cmax: iv, IV infusion
Experimental: After a baseline period of 24 hours in the clinic, all subjects receive a LD, 1-hour infusion on Day 1. After a 48-hour wash-out period, in which PK and PK/PD data is collected, subjects receive a 23-hour infusion (1-hour LD followed by a 22-hour maintenance dose). See FIG. 10 for the different dose levels in each SAD cohort. See e.g., Table 3 below. Part A is double-blinded. The cohorts of Part A is conducted sequentially starting with SAD cohort 1.
On Day 1 for Part A, subjects receive LD, 1-hour infusion. On Day 3, after a 48-hour washout period, subjects then receive a 23-hour infusion (1-hour LD followed by a 22-hour MD). No earlier than 24 hours after the end of infusion, subjects is discharged from the clinic on Day 5 (End of Treatment Period [EOTP]). A treatment protocol for the SAD cohorts of Part A is outlined in FIG. 12 and is described in Table 9 below.
Relevant plasma PK parameters are derived for BGE-105 by standard noncompartmental methods and tabulated along with descriptive statistics and graphs.

healthy adult subjects = assay: Phase 1 study Part A (SAD), safety and tolerability; type: in vivo, human; conditions: SAD cohorts
Experimental: Safety data is summarized using descriptive statistics (number of subjects, mean, median, standard deviation, minimum, and maximum) for continuous variables and using frequency and percentages for discrete variables.
Adverse events are coded using the Medical Dictionary for Regulatory Activities. The number of events, incidence, and percentage of TEAEs are calculated overall by system organ class, preferred term, and treatment group for each cohort and treatment group. The number and percentage of subjects with TEAEs are further summarized by severity and relationship to study drug. AEs related to study drug, AEs leading to withdrawal, SAEs, and deaths are also similarly summarized and/or listed in a similar manner.

[3] = SAD1 (60 mg/360 mg), Day 1, mean
[4] = SAD2 (120 mg/720 mg), Day 1, mean
[5] = SAD3 (240 mg/1440 mg), Day 1, mean

In the case of `COc1cccc(OC)c1-n1c(NS(=O)(=O)[C@@H](C)[C@H](C)c2ncc(C)cn2)nnc1-c1cncc(C)c1` [BGE-105, (2S,3R)—N-(4-(2,6-dimethoxyphenyl)-5-(5-methyl-3-pyridinyl)-4H-1,2,4-triazol-3-yl)-3-(5-methyl-2-pyrimidinyl)-2-butanesulfonamide], the “Muscle grade (progression), number of subjects out of 11” value ([1]; 240 mg daily (cohort MD 1B), 10-day bed rest) is reported as 1, the “number of patients (out of 11) moving to / worsening to ultrasound muscle quality grade 2” value ([1]; after 10 days of bed rest (placebo 8 of 10)) is reported as 1 and the Emax (human APLNR) is reported as 114%. For the same compound, the “dose proportionality / linearity of PK” value ([2]; 3 SAD cohorts, dose vs Cmax and AUC) was “dose proportionality; also recorded: linear”, the Dose-normalized AUCinf [2, 3] was 0.66 µg·h/mL/mg and the Dose-normalized Cmax [2, 3] was 0.12 µg/mL/mg. For the same compound, the Dose-normalized AUCinf [2, 4] was 0.49 µg·h/mL/mg, the Dose-normalized Cmax [2, 4] was 0.11 µg/mL/mg and the Dose-normalized AUCinf [2, 5] was 0.5 µg·h/mL/mg. The Dose-normalized Cmax [2, 5] was 0.11 µg/mL/mg, the AUC(0-t) ([2]; 60 mg, SAD1 (60 mg/360 mg), Day 1, mean, read-out: AUC0-24) was 34.7 µg·h/mL and the AUC(0-t) ([2]; 60 mg, SAD1 (60 mg/360 mg), Day 1, mean, read-out: AUClast) was 37.4 µg·h/mL. The AUC(0-t) ([2]; 120 mg, SAD2 (120 mg/720 mg), Day 1, mean, read-out: AUC0-24) was 53.7 µg·h/mL, the AUC(0-t) ([2]; 120 mg, SAD2 (120 mg/720 mg), Day 1, mean, read-out: AUClast) was 56.8 µg·h/mL and the AUC(0-t) ([2]; 240 mg, SAD3 (240 mg/1440 mg), Day 1, mean, read-out: AUC0-24) was 107 µg·h/mL. The AUC(0-t) ([2]; 240 mg, SAD3 (240 mg/1440 mg), Day 1, mean, read-out: AUClast) was 114 µg·h/mL, the AUC(0-t) ([2]; SAD1 (60 mg/360 mg), Day 3, mean, read-out: AUC0-24) was 173 µg·h/mL and the AUC(0-t) ([2]; SAD1 (60 mg/360 mg), Day 3, mean, read-out: AUClast) was 306 µg·h/mL. It also gave an AUC(0-t) ([2]; SAD2 (120 mg/720 mg), Day 3, mean, read-out: AUC0-24) of 267 µg·h/mL, an AUC(0-t) ([2]; SAD2 (120 mg/720 mg), Day 3, mean, read-out: AUClast) of 450 µg·h/mL and an AUC(0-t) ([2]; SAD3 (240 mg/1440 mg), Day 3, mean, read-out: AUC0-24) of 612 µg·h/mL. The AUC(0-t) ([2]; SAD3 (240 mg/1440 mg), Day 3, mean, read-out: AUClast) was 1060 µg·h/mL, the AUC(0-t) ([2]; highest dose (240 mg/1440 mg), read-out: AUClast) was 1060 µg·h/mL and the AUC(0-inf) [2, 3] was 39.6 µg·h/mL. For the same compound, the half-life [2, 3] was 9.1 h, the AUC(0-inf) [2, 4] was 58.8 µg·h/mL and the half-life [2, 4] was 8.6 h. The AUC(0-inf) [2, 5] was 119 µg·h/mL, the half-life [2, 5] was 8.9 h and the Cmax ([2]; 60 mg, SAD1 (60 mg/360 mg), Day 1, mean) was 7430 ng/mL. It also gave a Cmax ([2]; 120 mg, SAD2 (120 mg/720 mg), Day 1, mean) of 13700 ng/mL, a Cmax ([2]; 240 mg, SAD3 (240 mg/1440 mg), Day 1, mean) of 26700 ng/mL and a Cmax ([2]; SAD1 (60 mg/360 mg), Day 3, mean) of 10100 ng/mL. The Cmax ([2]; SAD2 (120 mg/720 mg), Day 3, mean) was 14800 ng/mL, the Cmax ([2]; SAD3 (240 mg/1440 mg), Day 3, mean) was 35600 ng/mL and the serious adverse events (healthy adult subjects) was “no serious adverse events”. For the same compound, the tolerability (healthy adult subjects; all doses including 240 mg/1440 mg) was “well tolerated”.
